Reference: ChEMBL document CHEMBL1201862, “PubChem BioAssay data set” (2004)
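Grown in 96-well plates, cells were treated for 48 hours with each compound at five concentrations. Insufficient inhibition: endpoint recorded as highest concentration tested. At the GI50, growth is halved.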 Activity calls are given as the source filed them. No stated cut-off is given here; in the data, active = GI50 up to about 1.1 µM and inactive = higher.

Tests used:
Test in all cases: NCI anticancer screen, dose series, 48 h
HCT-116 = tested on: HCT-116
HL-60 = tested on: HL-60
OVCAR-5 = tested on: OVCAR-5
SW-620 = tested on: SW-620
SNB-75 = tested on: SNB-75
OVCAR-4 = tested on: OVCAR-4
COLO 205 = tested on: COLO 205
EKVX = tested on: EKVX
CCRF-CEM = tested on: CCRF-CEM
NCI-H522 = tested on: NCI-H522
MDA-MB-231 = tested on: MDA-MB-231
MDA-N = tested on: MDA-N
TK-10 = tested on: TK-10
SR = tested on: SR
ACHN = tested on: ACHN
DU-145 = tested on: DU-145
UACC-257 = tested on: UACC-257
KM12 = tested on: KM12
NCI-H226 = tested on: NCI-H226

Which GI50 (HCT-116) does the source give for Nc1ccc2c(=O)cc(-c3ccc(Br)s3)[nH]c2n1 here?
Its GI50 is 3.02 µM (inactive).

And the GI50 (HL-60)?
Its GI50 is 2.41 µM (inactive).

And the GI50 (OVCAR-5)?
Its GI50 is 11.6 µM (inactive).

What about the GI50 (SW-620) of the same compound?
The GI50 was 1.12 µM (active).

And the GI50 (SNB-75)?
Its GI50 is 2.47 µM (inactive).

And the GI50 (OVCAR-4)?
Its GI50 is > 56.6 µM (inactive).

What about the GI50 (COLO 205) of the same compound?
The GI50 was 2.5 µM (inactive).

And the GI50 (EKVX)?
The GI50 was 7.59 µM (inactive).

And the GI50 (CCRF-CEM)?
Its GI50 is 2.37 µM (inactive).

What about the GI50 (NCI-H522) of the same compound?
Its GI50 is 1.42 µM (inactive).

What about the GI50 (MDA-MB-231) of the same compound?
The GI50 was 16.8 µM (inactive).

And the GI50 (MDA-N)?
Its GI50 is 0.323 µM (active).

What about the GI50 (TK-10) of the same compound?
The GI50 was 11.7 µM (inactive).

What about the GI50 (SR) of the same compound?
The GI50 was 0.267 µM (active).

And the GI50 (ACHN)?
Its GI50 is 7.16 µM (inactive).

And the GI50 (DU-145)?
Its GI50 is 3.93 µM (inactive).

What about the GI50 (UACC-257) of the same compound?
Its GI50 is > 27.7 µM (inactive).

What about the GI50 (KM12) of the same compound?
The GI50 was 0.673 µM (active).

And the GI50 (NCI-H226)?
The GI50 was 2.15 µM (inactive).

Which GI50 (HCT-116) does the source give for CC1=CC(=O)/C(=C/NC(=S)NCc2ccccc2)C(=O)O1 here?
The GI50 was > 100 µM (inactive).

And the GI50 (HL-60)?
Its GI50 is 75.3 µM (inactive).

What about the GI50 (OVCAR-5) of the same compound?
The GI50 was > 100 µM (inactive).

And the GI50 (SW-620)?
The GI50 was > 100 µM (inactive).

And the GI50 (SNB-75)?
The GI50 was 80 µM (inactive).

What about the GI50 (OVCAR-4) of the same compound?
The GI50 was > 100 µM (inactive).

And the GI50 (COLO 205)?
Its GI50 is > 100 µM (inactive).

What about the GI50 (EKVX) of the same compound?
Its GI50 is > 100 µM (inactive).

And the GI50 (CCRF-CEM)?
Its GI50 is > 100 µM (inactive).

And the GI50 (NCI-H522)?
Its GI50 is > 100 µM (inactive).

What about the GI50 (MDA-MB-231) of the same compound?
Its GI50 is > 100 µM (inactive).

What about the GI50 (MDA-N) of the same compound?
Its GI50 is > 100 µM (inactive).

What about the GI50 (TK-10) of the same compound?
Its GI50 is > 100 µM (inactive).

What about the GI50 (SR) of the same compound?
Its GI50 is > 100 µM (inactive).

What about the GI50 (ACHN) of the same compound?
The GI50 was > 100 µM (inactive).

And the GI50 (DU-145)?
Its GI50 is > 100 µM (inactive).

What about the GI50 (UACC-257) of the same compound?
Its GI50 is > 100 µM (inactive).

And the GI50 (KM12)?
Its GI50 is > 100 µM (inactive).

What about the GI50 (NCI-H226) of the same compound?
Its GI50 is > 100 µM (inactive).

Which GI50 (HCT-116) does the source give for O=C(OC1C#CCSCC#C/C=C\1)c1cnc2ccccc2n1 (stereo not given) here?
The GI50 was > 100 µM (inactive).

What about the GI50 (HL-60) of the same compound?
The GI50 was 30.6 µM (inactive).

And the GI50 (OVCAR-5)?
The GI50 was > 100 µM (inactive).

And the GI50 (SW-620)?
The GI50 was > 100 µM (inactive).

What about the GI50 (SNB-75) of the same compound?
The GI50 was > 100 µM (inactive).

And the GI50 (OVCAR-4)?
The GI50 was > 100 µM (inactive).

What about the GI50 (COLO 205) of the same compound?
The GI50 was 14.6 µM (inactive).

What about the GI50 (EKVX) of the same compound?
The GI50 was > 100 µM (inactive).

What about the GI50 (CCRF-CEM) of the same compound?
Its GI50 is 53.6 µM (inactive).

What about the GI50 (NCI-H522) of the same compound?
Its GI50 is > 100 µM (inactive).

What about the GI50 (MDA-MB-231) of the same compound?
Its GI50 is > 100 µM (inactive).

And the GI50 (MDA-N)?
Its GI50 is > 100 µM (inactive).

What about the GI50 (TK-10) of the same compound?
The GI50 was > 100 µM (inactive).

What about the GI50 (SR) of the same compound?
The GI50 was 12.2 µM (inactive).

And the GI50 (ACHN)?
The GI50 was > 100 µM (inactive).

What about the GI50 (DU-145) of the same compound?
The GI50 was > 100 µM (inactive).

What about the GI50 (UACC-257) of the same compound?
The GI50 was > 100 µM (inactive).

And the GI50 (NCI-H226)?
The GI50 was 79.4 µM (inactive).

With CCc1nc(N)nc(N)c1-c1ccc(NCCN)c([N+](=O)[O-])c1 as the compound, how does the GI50 (HCT-116) read?
The GI50 was 2.52 µM (inactive).

And the GI50 (HL-60)?
The GI50 was 3.99 µM (inactive).

What about the GI50 (OVCAR-5) of the same compound?
Its GI50 is 33.9 µM (inactive).

What about the GI50 (SW-620) of the same compound?
Its GI50 is 5 µM (inactive).

And the GI50 (SNB-75)?
Its GI50 is 19.7 µM (inactive).

And the GI50 (OVCAR-4)?
Its GI50 is 20.7 µM (inactive).

What about the GI50 (COLO 205) of the same compound?
The GI50 was 14.2 µM (inactive).

What about the GI50 (EKVX) of the same compound?
Its GI50 is 29 µM (inactive).

And the GI50 (CCRF-CEM)?
The GI50 was 4.41 µM (inactive).

And the GI50 (NCI-H522)?
The GI50 was 13.7 µM (inactive).

And the GI50 (MDA-MB-231)?
Its GI50 is 20.2 µM (inactive).

And the GI50 (MDA-N)?
The GI50 was 6.92 µM (inactive).

What about the GI50 (TK-10) of the same compound?
Its GI50 is > 88.7 µM (inactive).

And the GI50 (SR)?
The GI50 was 4 µM (inactive).

What about the GI50 (ACHN) of the same compound?
Its GI50 is 34.9 µM (inactive).

What about the GI50 (DU-145) of the same compound?
The GI50 was 20.5 µM (inactive).

And the GI50 (UACC-257)?
Its GI50 is 14.3 µM (inactive).

What about the GI50 (KM12) of the same compound?
The GI50 was 17.7 µM (inactive).

And the GI50 (NCI-H226)?
The GI50 was > 96.8 µM (inactive).
